Test results from the supplement of paper PMC10307832.

Legend:
Experiment in all cases: relative viability (nuclei count vs DMSO), 5 days (fraction); higher = more cells survive
4EGI-1 + OSI-027 = compound: O=C(O)C(Cc1ccccc1[N+](=O)[O-])=NNc1nc(-c2ccc(Cl)c(Cl)c2)cs1 (mixture of isomers) [4EGI-1] + COc1cccc2cc(-c3nc([C@H]4CC[C@H](C(=O)O)CC4)n4ncnc(N)c34)[nH]c12 [OSI-027] (partner 0.5 µM)
Procedure, shortened: (§1)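 Relative viability was taken as the ratio of nuclei in treated wells to nuclei in vehicle wells. Lung cancer cell lines in 1536-well plates received compounds by pin tool one day after seeding, either one drug alone or a fixed anchor-drug dose plus five library-drug doses (not always all listed) in √10 steps. Nuclei were counted on 4× images after 5 days of treatment, and values are medians of duplicate plates.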

XMD8-85 + Foretinib = compound: CN1CCN(CC1)C2=CC(=C(C=C2)NC3=NC=C4C(=N3)N(C5=CC=CC=C5C(=O)N4C)C)OC [XMD8-85] + COc1cc2c(Oc3ccc(NC(=O)C4(C(=O)Nc5ccc(F)cc5)CC4)cc3F)ccnc2cc1OCCCN1CCOCC1 [Foretinib] (partner 0.25 µM)
Procedure, shortened: as §1

4EGI-1 + Pemetrexed = compound: O=C(O)C(Cc1ccccc1[N+](=O)[O-])=NNc1nc(-c2ccc(Cl)c(Cl)c2)cs1 (mixture of isomers) [4EGI-1] + Nc1nc2[nH]cc(CCc3ccc(C(=O)N[C@@H](CCC(=O)O)C(=O)O)cc3)c2c(=O)[nH]1 [Pemetrexed] (partner 0.2 µM)
Procedure, shortened: as §1

4EGI-1 + Lapatinib = compound: O=C(O)C(Cc1ccccc1[N+](=O)[O-])=NNc1nc(-c2ccc(Cl)c(Cl)c2)cs1 (mixture of isomers) [4EGI-1] + CS(=O)(=O)CCNCc1ccc(-c2ccc3ncnc(Nc4ccc(OCc5cccc(F)c5)c(Cl)c4)c3c2)o1 [Lapatinib] (partner 2 µM)
Procedure, shortened: as §1

Cell Line | relative viability (4EGI-1 + OSI-027; first compound 0.5 µM) | relative viability (4EGI-1 + OSI-027; first compound 1.581 µM) | relative viability (4EGI-1 + OSI-027; first compound 5 µM) | relative viability (4EGI-1 + OSI-027; first compound 15.81 µM) | relative viability (4EGI-1 + OSI-027; first compound 50 µM) | relative viability (XMD8-85 + Foretinib; first compound 0.08 µM) | relative viability (XMD8-85 + Foretinib; first compound 0.253 µM) | relative viability (XMD8-85 + Foretinib; first compound 0.8 µM) | relative viability (XMD8-85 + Foretinib; first compound 2.53 µM) | relative viability (XMD8-85 + Foretinib; first compound 8 µM) | relative viability (4EGI-1 + Pemetrexed; first compound 0.5 µM) | relative viability (4EGI-1 + Pemetrexed; first compound 1.581 µM) | relative viability (4EGI-1 + Pemetrexed; first compound 5 µM) | relative viability (4EGI-1 + Pemetrexed; first compound 15.81 µM) | relative viability (4EGI-1 + Pemetrexed; first compound 50 µM) | relative viability (4EGI-1 + Lapatinib; first compound 0.5 µM) | relative viability (4EGI-1 + Lapatinib; first compound 1.581 µM) | relative viability (4EGI-1 + Lapatinib; first compound 5 µM) | relative viability (4EGI-1 + Lapatinib; first compound 15.81 µM) | relative viability (4EGI-1 + Lapatinib; first compound 50 µM)
UMC-11 | 0.465 | 0.526 | 0.507 | 0.484 | 0.284 | 1.17 | 0.949 | 1.21 | 0.913 | 0.651 | 0.841 | 0.792 | 0.863 | 0.805 | 0.52 | 1.19 | 0.825 | 1.31 | 1.17 | 0.669
NCI-H460 | 0.684 |  | 0.668 | 0.3 | 0.0347 | 1.07 | 1.09 | 1.05 | 0.948 | 0.78 | 0.0637 | 0.0738 | 0.0637 | 0.0604 | 0.0616 | 1.09 |  | 0.975 | 0.131 | 0.0327
NCI-H1793 | 0.331 | 0.287 | 0.355 | 0.247 | 0.134 |  | 0.668 | 0.681 | 0.783 | 0.594 | 1.09 | 0.905 | 1.1 | 0.659 | 0.304 | 0.637 | 0.886 | 0.556 | 0.814 | 0.402
LXF-289 | 0.825 | 0.809 | 0.758 | 0.756 | 0.519 | 0.887 | 0.997 | 0.993 | 0.977 | 0.812 | 0.874 | 0.909 | 0.941 | 0.804 | 0.605 | 0.893 | 0.912 | 0.893 | 0.763 | 0.677
NCI-H1563 | 0.788 | 0.752 | 0.85 | 0.736 | 0.665 | 1.05 | 0.935 | 0.836 | 0.892 | 0.767 | 0.905 | 0.221 | 0.968 | 0.747 | 0.81 | 1.11 | 0.809 | 0.994 | 0.393 | 0.536
NCI-H1944 | 0.427 |  | 0.392 | 0.307 | 0.303 |  | 1.04 | 0.898 | 0.836 | 0.571 | 0.683 |  | 0.668 | 0.586 | 0.331 | 0.816 |  | 0.776 | 0.745 | 0.456
CAL-12T | 0.822 | 0.413 | 0.755 | 0.522 | 0.21 | 1.18 | 1.17 | 1.24 | 1.06 | 0.346 | 1.21 |  | 1.25 | 1.14 | 0.86 |  |  | 0.634 | 0.701 | 0.529
NCI-H23 | 0.612 |  | 0.614 | 0.453 | 0.417 | 1.08 | 0.778 | 1.08 | 0.77 | 0.866 | 0.819 |  | 0.77 | 0.551 | 0.274 | 1.24 |  | 1.09 | 1.13 | 0.43
LK-2 | 0.196 |  | 0.201 | 0.182 | 0.178 |  | 1.05 | 1.01 | 0.554 | 0.389 | 0.303 |  | 0.336 | 0.289 | 0.179 | 1.04 |  | 0.978 | 0.984 | 0.745
NCI-H358 | 0.778 | 0.624 | 1.08 | 0.391 | 0.106 | 0.656 | 0.774 | 0.84 | 0.673 | 0.422 | 0.177 | 0.187 | 0.178 | 0.174 | 0.165 | 0.483 | 0.437 | 0.603 | 0.395 | 0.211
NCI-H647 | 0.7 |  | 0.739 | 0.671 | 0.399 | 1.37 | 1.3 | 1.34 | 1.04 | 0.865 | 0.198 | 0.179 | 0.206 | 0.156 | 0.087 | 1.03 | 0.989 | 1.08 | 0.505 | 0.124
COR-L 105 | 0.937 | 0.572 | 0.718 | 0.434 | 0.535 | 1.21 | 1.14 | 1.08 | 0.672 | 0.387 | 1.2 | 0.996 | 1.14 | 0.905 | 0.98 | 0.421 | 0.38 | 0.371 | 0.343 | 0.293
A-427 | 0.604 | 0.386 | 0.534 | 0.44 | 0.152 | 1.22 | 1.03 | 1.12 | 0.889 | 0.828 | 0.982 |  | 0.99 | 0.838 | 0.228 | 1.11 | 0.728 | 1.06 | 0.997 | 0.6
NCI-H1734 | 0.698 | 0.432 | 0.618 | 0.55 | 0.23 | 0.858 | 0.853 | 0.896 | 0.842 | 0.629 | 0.403 | 0.433 | 0.464 | 0.441 | 0.362 | 1.15 | 0.939 | 1.15 | 0.903 | 0.393
PC-3 [JPC-3] | 0.778 | 0.73 | 0.746 |  | 0.498 | 1.05 | 1.04 | 1.04 | 1.19 | 0.912 | 1.09 |  | 1.21 | 0.491 | 0.333 | 0.518 | 0.416 | 0.443 |  | 0.39
LCLC-97TM1 | 0.464 | 0.258 | 0.527 | 0.482 | 0.478 | 0.934 | 0.95 | 0.959 | 1.01 | 1 | 0.181 |  | 0.195 | 0.165 | 0.114 | 1.28 |  | 1.16 | 0.801 | 0.274
HCC-366 | 0.922 | 0.742 | 1.13 | 0.669 | 0.277 | 0.991 | 1.04 | 0.988 | 0.937 | 0.748 | 0.154 | 0.18 | 0.184 | 0.147 | 0.111 | 1.03 | 0.632 | 1.02 | 1.03 | 0.134
COR-L23 | 0.899 | 0.459 | 0.848 | 0.542 | 0.138 | 1.02 | 1.05 | 1.06 | 0.998 | 0.773 | 0.223 | 0.189 | 0.194 | 0.204 | 0.215 | 1.13 | 0.826 | 0.981 | 0.536 | 0.14
NCI-H1395 | 0.647 | 0.43 | 0.686 | 0.567 | 0.355 | 1.03 | 0.974 | 1.05 | 0.925 | 0.8 | 0.878 |  | 1.12 | 0.917 | 0.421 | 0.975 |  | 1.18 | 0.832 | 0.413
LOU-NH91 | 0.737 |  | 0.752 | 0.432 | 0.675 |  | 0.966 | 0.863 | 1.02 | 0.843 | 0.431 |  | 0.387 | 0.435 | 0.481 | 0.807 |  | 0.822 | 0.787 | 0.552
NCI-H2405 | 0.679 | 0.557 | 0.677 | 0.698 | 0.693 | 1.07 | 1.08 | 1.07 | 1.04 | 0.984 | 1.1 |  | 1.3 | 1.05 | 0.285 | 1.27 | 0.801 | 1.23 | 1.09 | 0.685
SK-LU-1 | 0.381 | 0.36 | 0.356 | 0.34 | 0.174 | 0.845 | 0.825 | 0.841 | 0.772 | 0.674 | 0.932 | 1.02 | 0.992 | 1.06 | 0.319 | 0.972 | 1.06 | 0.803 | 0.698 | 0.487
NCI-H838 | 0.419 |  | 0.403 | 0.362 | 0.218 | 0.941 | 1 | 1.08 | 0.91 | 0.569 | 0.247 | 0.255 | 0.244 | 0.225 | 0.174 | 1.24 |  | 1.16 | 0.654 | 0.173
HCC-15 | 0.692 |  | 0.734 | 0.557 | 0.19 | 1.05 | 1.01 | 0.963 | 1.05 | 0.766 | 0.231 | 0.22 | 0.204 | 0.198 | 0.212 | 0.949 | 0.914 | 0.871 | 0.8 | 0.423
EPLC-272H | 0.317 |  | 0.285 | 0.274 | 0.172 | 0.619 | 0.717 | 0.751 | 0.47 | 0.436 | 0.372 | 0.304 | 0.322 | 0.29 | 0.245 | 1.03 | 0.501 | 0.909 | 0.624 | 0.39
NCI-H1755 | 0.791 | 0.663 | 0.693 | 0.713 | 0.487 | 0.873 | 0.921 | 0.88 | 0.97 | 0.783 | 0.424 | 0.428 | 0.417 | 0.561 | 0.351 | 1.06 | 1.01 | 0.967 | 0.883 | 0.284
EMC-BAC-2 | 0.39 | 0.342 | 0.4 | 0.374 | 0.327 | 1.1 | 1.05 | 0.975 | 0.965 | 0.754 | 0.418 |  | 0.466 | 0.482 | 0.323 | 1.06 | 0.744 | 0.89 | 0.913 | 0.88
201T | 0.791 | 0.622 | 0.824 | 0.704 | 0.656 | 1.13 | 1.24 | 1.13 | 0.733 | 0.703 | 0.338 | 0.368 | 0.387 | 0.334 | 0.348 | 1.04 | 0.986 | 1.04 | 1.02 | 0.659
